In publication PMC11227560, “Tyrosol blocks E. coli anaerobic biofilm formation via YbfA and FNR to increase antibiotic susceptibility” (Nature Communications, 2024):

Molecular target: T1, YbfA (Escherichia coli, UniProt P0AAU2)
T1 construct: recombinant 6xHis-tagged YbfA (pET28a), ybfA gene cloned from E. coli W3110
Experiment: isothermal titration calorimetry (ITC), […] °C
Type: binding

T1 sequence (P0AAU2 22-68): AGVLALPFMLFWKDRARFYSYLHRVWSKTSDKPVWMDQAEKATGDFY

Structure (SMILES): OCCc1ccc(O)cc1 [tyrosol]
- Kd: 4.65 ± 0.11 µM
